“And” between values parts separate entries of the source, which are not always exact repeats. Equal values may be shown once. Where a SMILES comes first, the peptide text is derived from it. [ ]: non-standard residue; d: D form. Hyp = O=C(O)[C@@H]1C[C@@H](O)CN1
Columns and labels:
GM-CSF = test: Example 9 Luminex, LPS hPBMCs: GM-CSF; format: cell-based, human
Method: (§1) Treatment Human PBMCs were pretreated with YY-101, YDE-011 and YDE-043 or reference compound; Xiidra® at various concentration (ranging from 1 nM to 100 uM) for 2 h before stimulation. An equal volume of 0.5% DMSO was used as a vehicle control. Then, the cells were treated with LPS at 5 ug/ml. The supernatants from treated cells were harvested at 24 h and placed in a 96 well for Luminex cytokine & chemokine profiling using a Luminex 200 multiplex assay (Luminex; R&D system, USA).
(§2) The main study arm with triplicate wells per group in a 24-well plate: • 1. Blank • 2. PBMC: 0.5% DMSO • 3. PBMC+LPS (5 ug/ml) • 4. PBMC+YY-101 100 uM • 5. PBMC+YY-101 10 uM • 6. PBMC+YY-101 1 uM • 7. PBMC+YY-101 0.1 uM • 8. PBMC+YY-101 0.01 uM • 9. PBMC+LPS (5 ug/ml)+Xiidra®100 uM • 10. PBMC+LPS (5 ug/ml)+Xiidra® 10 uM • 11. PBMC+LPS (5 ug/ml)+Xiidra® 1 uM • 12. PBMC+LPS (5 ug/ml)+Xiidra®0.1 uM • 13. PBMC+LPS (5 ug/ml)+Xiidra®0.01 uM • 14. PBMC+LPS (5 ug/ml)+Xiidra®0.001 uM • 15. PBMC+LPS (5 ug/ml)+YY-101 100 uM • 16. PBMC+LPS (5 ug/ml)+YY-101 10 uM • 17. PBMC+LPS (5 ug/ml)+YY-101 1 uM • 18. PBMC+LPS (5 ug/ml)+YY-101 0.1 uM • 19. PBMC+LPS (5 ug/ml)+YY-101 0.01 uM • 20. PBMC+LPS (5 ug/ml)+YY-101 0.001 uM • 21. PBMC+LPS (5 ug/ml)+YDE-011 100 uM • 22. PBMC+LPS (5 ug/ml)+YDE-011 10 uM • 23. PBMC+LPS (5 ug/ml)+YDE-011 1 uM • 24. PBMC+LPS (5 ug/ml)+YDE-011 0.1 uM • 25. PBMC+LPS (5 ug/ml)+YDE-011 0.01 uM • 26. PBMC+LPS (5 ug/ml)+YDE-011 0.001 uM • 27. PBMC+LPS (5 ug/ml)+YDE-043 100 uM • 28. PBMC+LPS (5 ug/ml)+YDE-043 10 uM • 29. PBMC+LPS (5 ug/ml)+YDE-043 1 uM • 30. PBMC+LPS (5 ug/ml)+YDE-043 0.1 uM • 31. PBMC+LPS (5 ug/ml)+YDE-043 0.01 uM • 32. PBMC+LPS (5 ug/ml)+YDE-043 0.001 uM
(§3) Multiplex assay was used to measure 30 cytokines and chemokines. The 1:2, 1:10 and 1:200 diluted cell supernatant and serial dilution of the standard were dispensed into a 96 well plate at 50 ul/well. Then, the pre-mixed cocktail of antibody-coated magnetic beads was dispensed at 50 ul/well and incubated at room temperature for 2 h in a horizontal orbital microplate shaker at 800±500 rpm. The beads were washed using a magnetic device to prevent loss. The biotin-antibody was dispensed in 50 ul of each well and incubated at room temperature for 1 h in a shaker at 800±500 rpm. After washing, streptavidin-PE was added at 50 ul/well and incubated at room temperature for 30 min in a shaker under the same conditions. Finally, after washing, wash buffer (100 ul/well) was added to the plate and incubated in a shaker for 2 min. The Luminex™ 200 setting were set according to the manufacturer's protocol. The data was calculated with a standard five-parameter logistic nonlinear regression analysis of the data (xPonent software 4.2, USA). The levels of cytokine/chemokine are normalized to the live cell counts (1×10^5 cells/mL) and presented as concentrations per mL (pg/mL or ng/mL).

CCL20/MIP-3 alpha = test: Example 9 Luminex, LPS hPBMCs: CCL20/MIP-3 alpha; format: cell-based, human
Method: as §1, §2, §3

[1] = PBMC + LPS(5 ug/ml) + test article 0.001 uM, Mean
[2] = PBMC + LPS(5 ug/ml) + test article 0.001 uM, single replicates
[3] = PBMC + LPS(5 ug/ml) + test article 0.01 uM, Mean
[4] = PBMC + LPS(5 ug/ml) + test article 0.01 uM, single replicates
[5] = PBMC + LPS(5 ug/ml) + test article 0.1 uM, Mean
[6] = PBMC + LPS(5 ug/ml) + test article 0.1 uM, single replicates
[7] = PBMC + LPS(5 ug/ml) + test article 1 uM, Mean
[8] = PBMC + LPS(5 ug/ml) + test article 1 uM, single replicates
[9] = PBMC + LPS(5 ug/ml) + test article 10 uM, Mean
[10] = PBMC + LPS(5 ug/ml) + test article 10 uM, single replicates
[11] = PBMC + LPS(5 ug/ml) + test article 100 uM, Mean
[12] = PBMC + LPS(5 ug/ml) + test article 100 uM, single replicates
[13] = PBMC + test article 0.01 uM, no LPS, Mean
[14] = PBMC + test article 0.01 uM, no LPS, single replicates
[15] = PBMC + test article 0.1 uM, no LPS, Mean
[16] = PBMC + test article 0.1 uM, no LPS, single replicates
[17] = PBMC + test article 1 uM, no LPS, Mean
[18] = PBMC + test article 1 uM, no LPS, single replicates
[19] = PBMC + test article 10 uM, no LPS, Mean
[20] = PBMC + test article 10 uM, no LPS, single replicates
[21] = PBMC + test article 100 uM, no LPS, Mean
[22] = PBMC + test article 100 uM, no LPS, single replicates
[23] = PBMC + LPS(5 ug/ml) + test article 0.001 uM, individual replicate
[24] = PBMC + LPS(5 ug/ml) + test article 0.01 uM, individual replicate

SMILES: CC(C)C[C@H](NC(=O)CNC(=O)[C@H](CC(=O)O)NC(=O)[C@H](CCC(N)=O)NC(=O)CNC(=O)[C@@H]1C[C@@H](O)CN1)C(=O)N[C@@H](C)C(=O)NCC(=O)N1CCC[C@H]1C(=O)N[C@@H](CCCCN)C(=O)O [YY-101] (H-[Hyp]GQDGLAGPK-OH; N-terminus and C-terminus assumed)
- GM-CSF Concentration (GM-CSF; [1]): 159.8 pg/mL
- GM-CSF conc/live cell (GM-CSF; [1]): 24.7 pg/10^5
- GM-CSF Concentration (GM-CSF; [2]): 138.9 pg/mL and 160.4 pg/mL and 180.1 pg/mL
- GM-CSF conc/live cell (GM-CSF; [2]): 24.4 pg/10^5 and 22.6 pg/10^5 and 27.3 pg/10^5
- GM-CSF Concentration (GM-CSF; [3]): 159.0 pg/mL
- GM-CSF conc/live cell (GM-CSF; [3]): 25.8 pg/10^5
- GM-CSF Concentration (GM-CSF; [4]): 164.4 pg/mL and 159.6 pg/mL and 153.1 pg/mL
- GM-CSF conc/live cell (GM-CSF; [4]): 25.7 pg/10^5 and 26.6 pg/10^5 and 25.1 pg/10^5
- GM-CSF Concentration (GM-CSF; [5]): 139.7 pg/mL
- GM-CSF conc/live cell (GM-CSF; [5]): 23.9 pg/10^5
- GM-CSF Concentration (GM-CSF; [6]): 150.7 pg/mL and 135.6 pg/mL and 132.7 pg/mL
- GM-CSF conc/live cell (GM-CSF; [6]): 24.3 pg/10^5 and 26.1 pg/10^5 and 21.4 pg/10^5
- GM-CSF Concentration (GM-CSF; [7]): 141.2 pg/mL
- GM-CSF conc/live cell (GM-CSF; [7]): 21.7 pg/10^5
- GM-CSF Concentration (GM-CSF; [8]): 137.2 pg/mL and 133.1 pg/mL and 153.1 pg/mL
- GM-CSF conc/live cell (GM-CSF; [8]): 21.8 pg/10^5 and 18.8 pg/10^5 and 24.7 pg/10^5
- GM-CSF Concentration (GM-CSF; [9]): 148.1 pg/mL
- GM-CSF conc/live cell (GM-CSF; [9]): 22.5 pg/10^5
- GM-CSF Concentration (GM-CSF; [10]): 153.1 pg/mL and 143.8 pg/mL and 147.4 pg/mL
- GM-CSF conc/live cell (GM-CSF; [10]): 25.5 pg/10^5 and 22.5 pg/10^5 and 19.4 pg/10^5
- GM-CSF Concentration (GM-CSF; [11]): 224.0 pg/mL
- GM-CSF conc/live cell (GM-CSF; [11]): 38.7 pg/10^5
- GM-CSF Concentration (GM-CSF; [12]): 239.6 pg/ml and 216.3 pg/ml (2×)
- GM-CSF conc/live cell (GM-CSF; [12]): 38.0 pg/10^5 and 34.9 pg/10^5 and 43.3 pg/10^5
- GM-CSF Concentration (GM-CSF; [13]): 5.8 pg/mL
- GM-CSF conc/live cell (GM-CSF; [13]): 1.2 pg/10^5
- GM-CSF Concentration (GM-CSF; [14]): 5.3 pg/mL and 6.3 pg/mL
- GM-CSF conc/live cell (GM-CSF; [14]): 1.0 pg/10^5 and 1.3 pg/10^5
- GM-CSF Concentration (GM-CSF; [15]): 4.4 pg/mL
- GM-CSF conc/live cell (GM-CSF; [15]): 0.8 pg/10^5
- GM-CSF Concentration (GM-CSF; [16]): 1.9 pg/mL and 6.9 pg/mL
- GM-CSF conc/live cell (GM-CSF; [16]): 0.4 pg/10^5 and 1.2 pg/10^5
- GM-CSF Concentration (GM-CSF; [17]): 4.4 pg/mL
- GM-CSF conc/live cell (GM-CSF; [17]): 0.8 pg/10^5
- GM-CSF Concentration (GM-CSF; [18]): 4.7 pg/mL and 4.2 pg/mL
- GM-CSF conc/live cell (GM-CSF; [18]): 0.9 pg/10^5 and 0.8 pg/10^5
- GM-CSF Concentration (GM-CSF; [19]): 23.5 pg/mL
- GM-CSF conc/live cell (GM-CSF; [19]): 3.7 pg/10^5
- GM-CSF Concentration (GM-CSF; [20]): 33.5 pg/mL and 13.5 pg/mL
- GM-CSF conc/live cell (GM-CSF; [20]): 5.2 pg/10^5 and 2.2 pg/10^5
- GM-CSF Concentration (GM-CSF; [21]): 11.0 pg/mL
- GM-CSF conc/live cell (GM-CSF; [21]): 1.7 pg/10^5
- GM-CSF Concentration (GM-CSF; [22]): 14.5 pg/mL and 7.4 pg/mL
- GM-CSF conc/live cell (GM-CSF; [22]): 2.3 pg/10^5 and 1.1 pg/10^5
- LPS-induced GM-CSF levels (in words) (GM-CSF; at 100.iM, LPS 5 ug/mL 24 hrs): further increased
- Concentration, CCL20/MIP-3 alpha (CCL20/MIP-3 alpha; [1]): 315.3 pg/mL
- MFI, CCL20/MIP-3 alpha (CCL20/MIP-3 alpha; [1]): 346.7
- conc/live cell, CCL20/MIP-3 alpha (CCL20/MIP-3 alpha; [1]): 49.1 pg/10^5
- Concentration, CCL20/MIP-3 alpha (CCL20/MIP-3 alpha; [23]): 301.0 pg/mL and 289.9 pg/mL and 355.1 pg/mL
- MFI, CCL20/MIP-3 alpha (CCL20/MIP-3 alpha; [23]): 329.0 and 315.5 and 395.5
- conc/live cell, CCL20/MIP-3 alpha (CCL20/MIP-3 alpha; [23]): 52.8 pg/10^5 and 40.8 pg/10^5 and 53.8 pg/10^5
- Concentration, CCL20/MIP-3 alpha (CCL20/MIP-3 alpha; [3]): 377.7 pg/mL
- MFI, CCL20/MIP-3 alpha (CCL20/MIP-3 alpha; [3]): 423.7
- conc/live cell, CCL20/MIP-3 alpha (CCL20/MIP-3 alpha; [3]): 61.2 pg/10^5
- Concentration, CCL20/MIP-3 alpha (CCL20/MIP-3 alpha; [24]): 383.7 pg/mL and 338.9 pg/mL and 410.6 pg/mL
- MFI, CCL20/MIP-3 alpha (CCL20/MIP-3 alpha; [24]): 431.0 and 375.5 and 464.5

Source: patent US20230146455A1, “TREATMENT OF INFLAMMATORY DISEASES WITH PEPTIDES AND PHARMACEUTICAL COMPOSITIONS” (Yuyu Pharma, Inc., priority 2020, published 2023)
